Test results: US10627415B2, “Compositions and methods for diagnosing, monitoring, and treating an autoimmune disease” (BOARD OF TRUSTEES OF MICHIGAN STATE UNIVERSITY, priority 2015, dated 2020)
One block for each molecule: values may come before it.

Assays:
Format in all cases: cell-based, human
RBCs [1] = assay: Effect of C-peptide binding facilitator on C-peptide binding to RBCs (Example 2 protocol); settings: for C-peptide binding to RBCs, MS: n = 1
Method: Similar studies were performed using serum albumin from other species (human, porcine, chicken); all of these forms deliver C-peptide to RBCs and are useful in the methods described herein.
All samples were handled in an identical manner. Briefly, about 10 mL of blood was drawn from each donor; the RBCs were purified by centrifugation; and the RBCs were suspended in physiological salt solution (PSS). Then RBCs were combined with PSS (containing bovine serum albumin (BSA) as a C-peptide binding facilitator) and C-peptide to generate a mixture having a 7% hematocrit, 20 nM C-peptide, and 75 μM BSA (0.5%). The mixture was allowed to incubate for 2 hours at 37° C. Next, the samples were centrifuged to separate the cells from solution, the solution was diluted 1:50 with double distilled water, and the amount of C-peptide remaining in the solution was determined by ELISA. This provided a value corresponding to the moles of C-peptide bound to the RBCs. […] Whereas blood from the healthy controls bound an average of 1.99±0.32 pmoles C-peptide, blood from MS patients and OND patients bound averages of 3.51±0.59 pmoles of C-peptide and 2.23±0.51 pmoles of C-peptide, respectively. As shown by p values of less than 0.001, the increase in C-peptide binding relative to healthy controls and OND patients is significant.
Experiments were performed to determine the effect of C-peptide binding facilitator concentration on C-peptide binding by RBCs. The protocol of Experiment 2 was repeated, but with increasing BSA concentrations. […] Only a slight increase in C-peptide binding is realized.
Experiments were performed to test various potential C-peptide binding facilitators. The experiments were performed as described in example 2, but the C-peptide binding facilitator, BSA, was replaced with other albumins (porcine serum albumin and ovalbumin) or other proteins (leptin, casein, transferrin, and collagen).

RBCs [2] = assay: 65Zn2+ binding to RBCs; settings: 20 nM 65Zn2+ and 20 nM C-peptide
From the text: In some embodiments, e.g., those in which RBCs are contacted with C-peptide and Zn^2+, Fe^2+, and/or Cr^3+, in the presence of albumin or other C-peptide binding facilitator, Zn^2+, Fe^2+, and/or Cr^3+ uptake by RBCs can be measured (e.g., as a proxy for C-peptide uptake). Methods for detecting or measuring Zn^2+ uptake by RBCs are known in the art and described in, e.g., Horn et al. (1995) J Physiol 489(1):73-80 (describing the use of radiolabeled Zn^2+).
Additional samples from healthy controls and MS patients were analyzed for C-peptide binding, ATP release (10 healthy control patients, 10 MS patients, and 12 MS patients with glybenclamide), and Zn^2+ binding (11 healthy control patients and 22 MS patients). […] Here, 20 nM ^65Zn^2+ was incubated with the RBCs and 20 nM C-peptide. It is noteworthy that in 32 of these 34 samples, MS ATP release, C-peptide and/or Zn^2+ binding, was higher than the control samples analyzed simultaneously with the MS samples.

RBCs of MS patients = assay: ATP release from RBCs in a constricted environment (luciferin/luciferase chemiluminescence); settings: RBCs of MS patients incubated with the inhibitor; 7% hematocrit, flow; MS without inhibitor 344.7±46.8 nM, healthy controls 132.1±14.1 nM
From the text: In some embodiments, detecting or measuring the amount of C-peptide uptake can be accomplished by measuring ATP release by the RBCs contacted with C-peptide (and, optionally, Zn^2+, Fe^2+, and/or Cr^3+). Methods for measuring ATP release by RBCs are known in the art and described in, e.g., Faris and Spence (2008) Analyst 133(5):678-682; Fischer et al. (2003) Analyst 128(9):1163-1168; Petruzzi et al. (1994) Metabalism 43(4):435-440; Richards et al. (2013) Am J Physiol Regul Integr Comp Physiol 305(11):R1331-1336; and Richards et al. (2014) Am J Physiol Regul Integr Comp Physiol 307(7):R862-868. For example, ATP can be measured using a luciferin-luciferase assay. […] The light emitted from the reaction with ATP can be quantified using a luminometer. […]
Experiments were performed to determine if RBCs from MS patients (n=19) release more ATP than blood from healthy control patients (n=10) or blood from MS patents combined with the ATP release inhibitor, glybenclamide (Gly; n=12) when subjected to a constricted environment. […] The portion of tubing having the polyimide coating removed was positioned over a light-excluding box containing a photomultiplier tube (PMT), such that chemiluminescence generated from the ATP contacting the detection facilitator was detected. […]

[3] = other albumin in place of BSA, n = 4
[4] = other protein in place of BSA, n = 3

C-peptide binding (RBCs [1]; [BSA] 0.5%): 2.14 ± 0.22 pmol | C-peptide binding (RBCs [1]; [BSA] 1.0%): 2.19 ± 0.16 pmol | C-peptide binding (RBCs [1]; [BSA] 2.0%): 2.26 ± 0.13 pmol
Molecule: bovine serum albumin [BSA]

C-peptide binding to RBCs, MS (RBCs [1]; other albumin in place of BSA): 0.67 pmol | C-peptide binding to RBCs, Control (RBCs [1]; [3]): 0.39 ± 0.22 pmol
Molecule: ovalbumin

C-peptide binding to RBCs, MS (RBCs [1]; other protein in place of BSA): 0.56 pmol | C-peptide binding to RBCs, Control (RBCs [1]; [4]): 0.21 ± 0.14 pmol
Molecule: collagen

C-peptide binding to RBCs, MS (RBCs [1]; other protein in place of BSA): No binding detected | C-peptide binding to RBCs, Control (RBCs [1]; [4]): No binding detected
Molecule: casein

C-peptide binding to RBCs, MS (RBCs [1]; other protein in place of BSA): No binding detected | C-peptide binding to RBCs, Control (RBCs [1]; [4]): No binding detected
Molecule: transferrin

C-peptide binding to RBCs, MS (RBCs [1]; other protein in place of BSA): 0.97 pmol | C-peptide binding to RBCs, Control (RBCs [1]; [4]): 0.74 ± 0.11 pmol
Molecule: leptin

amount of 65Zn2+ able to bind with the RBCs (RBCs [2]; RBCs of MS patients): 3.61±0.22 picomoles | amount of 65Zn2+ able to bind with the RBCs (RBCs [2]; RBCs of healthy controls): 2.26±0.24 picomoles
Molecule: [65Zn+2] [^65Zn^2+]

Molecule: COc1ccc(Cl)cc1C(=O)NCCc1ccc(S(=O)(=O)NC(=O)NC2CCCCC2)cc1 [glybenclamide]
ATP release (RBCs of MS patients): 65.3 ± 11.6 nM

C-peptide binding to RBCs, MS (RBCs [1]; other albumin in place of BSA): 6.33 pmol | C-peptide binding to RBCs, Control (RBCs [1]; [3]): 4.01 ± 1.01 pmol
B1: porcine serum albumin (protein, UniProt P08835 25-607, looked up)
Albumin: DTYKSEIAHRFKDLGEQYFKGLVLIAFSQHLQQCPYEEHVKLVREVTEFAKTCVADESAENCDKSIHTLFGDKLCAIPSLREHYGDLADCCEKEEPERNECFLQHKNDNPDIPKLKPDPVALCADFQEDEQKFWGKYLYEIARRHPYFYAPELLYYAIIYKDVFSECCQAADKAACLLPKIEHLREKVLTSAAKQRLKCASIQKFGERAFKAWSLARLSQRFPKADFTEISKIVTDLAKVHKECCHGDLLECADDRADLAKYICENQDTISTKLKECCDKPLLEKSHCIAEAKRDELPADLNPLEHDFVEDKEVCKNYKEAKHVFLGTFLYEYSRRHPDYSVSLLLRIAKIYEATLEDCCAKEDPPACYATVFDKFQPLVDEPKNLIKQNCELFEKLGEYGFQNALIVRYTKKVPQVSTPTLVEVARKLGLVGSRCCKRPEEERLSCAEDYLSLVLNRLCVLHEKTPVSEKVTKCCTESLVNRRPCFSALTPDETYKPKEFVEGTFTFHADLCTLPEDEKQIKKQTALVELLKHKPHATEEQLRTVLGNFAAFVQKCCAAPDHEACFAVEGPKFVIEIRGILA
